The source of these data is ChEMBL document CHEMBL3714716, “Modulators of the relaxin receptor 1” (2015).

The structures appear in SMILES notation. ≈ marks a conversion by molar mass, not a printed value. Calls of active or inactive are those of the source. The rule behind the calls is not given here.

Data set [1] concerns the target T1, Relaxin receptor 1 (Homo sapiens, UniProt Q9HBX9).
T1 sequence (Q9HBX9 whole entry): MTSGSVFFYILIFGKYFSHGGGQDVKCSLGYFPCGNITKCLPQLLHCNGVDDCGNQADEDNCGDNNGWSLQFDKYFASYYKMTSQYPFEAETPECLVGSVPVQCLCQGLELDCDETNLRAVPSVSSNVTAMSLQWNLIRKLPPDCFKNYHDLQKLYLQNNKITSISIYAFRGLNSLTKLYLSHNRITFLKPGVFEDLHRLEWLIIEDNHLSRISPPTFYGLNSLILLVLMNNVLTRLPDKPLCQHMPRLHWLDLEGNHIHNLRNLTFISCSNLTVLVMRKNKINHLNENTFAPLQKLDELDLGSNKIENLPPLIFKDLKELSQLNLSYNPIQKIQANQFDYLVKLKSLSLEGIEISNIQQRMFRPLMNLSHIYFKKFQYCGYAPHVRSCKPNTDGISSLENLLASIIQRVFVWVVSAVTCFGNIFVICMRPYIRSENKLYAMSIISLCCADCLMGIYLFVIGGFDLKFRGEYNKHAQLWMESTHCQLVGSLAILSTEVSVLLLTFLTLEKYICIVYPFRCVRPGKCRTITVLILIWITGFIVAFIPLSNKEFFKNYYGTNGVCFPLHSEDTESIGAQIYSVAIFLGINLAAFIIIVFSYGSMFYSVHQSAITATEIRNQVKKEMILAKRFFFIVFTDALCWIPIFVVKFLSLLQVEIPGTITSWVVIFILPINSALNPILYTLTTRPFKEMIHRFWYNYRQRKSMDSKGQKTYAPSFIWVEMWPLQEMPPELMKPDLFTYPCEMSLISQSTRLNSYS
The data set can be described thus: Agonist activity at RXFP1 receptor (unknown origin) expressed in HEK293 cells assessed as stimulation of cAMP production incubated for 30 mins by TR-FRET based HTRF assay. In kind it is functional, cell-based.

The target in data set [2] is T2, Relaxin receptor 1 (Homo sapiens) (UniProt Q9HBX9).
T2 sequence (whole entry): T1 sequence (Q9HBX9 whole entry)
Description: Agonist activity at RXFP1 receptor (unknown origin) expressed in HEK293 cells assessed as stimulation of cAMP production incubated for 30 mins by TR-FRET based HTRF assay relative to forskolin. In kind it is functional, cell-based.

The target in data set [3] is T3, Relaxin receptor 2 (Homo sapiens, UniProt Q8WXD0). The data set can be described thus: Agonist activity at RXFP2 receptor (unknown origin) expressed in HEK293 cells assessed as stimulation of cAMP production incubated for 30 mins by HTRF assay. In kind it is functional, cell-based. (In general: cAMP levels reflect the balance of adenylyl cyclase and phosphodiesterase activity.)

For data set [4], the target named is T3, Relaxin receptor 2. Description: Agonist activity at RXFP2 receptor (unknown origin) expressed in HEK293 cells assessed as stimulation of cAMP production incubated for 30 mins by HTRF assay relative to control. In kind it is functional, cell-based.
Another data set addresses T4, Vasopressin V1b receptor (Homo sapiens, UniProt P47901).
T4 sequence (P47901 whole entry): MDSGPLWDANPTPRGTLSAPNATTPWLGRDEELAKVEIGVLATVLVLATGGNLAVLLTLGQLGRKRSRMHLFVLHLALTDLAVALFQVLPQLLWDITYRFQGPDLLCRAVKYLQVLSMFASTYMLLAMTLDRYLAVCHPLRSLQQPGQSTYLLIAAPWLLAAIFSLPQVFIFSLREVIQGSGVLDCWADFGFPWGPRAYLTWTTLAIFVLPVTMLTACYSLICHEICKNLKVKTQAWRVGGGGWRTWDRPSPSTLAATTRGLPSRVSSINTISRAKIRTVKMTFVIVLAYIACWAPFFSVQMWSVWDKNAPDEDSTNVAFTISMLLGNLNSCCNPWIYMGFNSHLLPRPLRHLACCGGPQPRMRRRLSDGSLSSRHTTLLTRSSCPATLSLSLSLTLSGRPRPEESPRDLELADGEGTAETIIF
The data set can be described thus: Agonist activity at vasopressin receptor 1b (unknown origin) expressed in HEK293 cells assessed as stimulation of cAMP production incubated for 30 mins by HTRF assay. In kind it is functional, cell-based.

For data set [5], the target named is T5, Vasopressin V1b receptor (Homo sapiens) (UniProt P47901).
T5 sequence (whole entry): T4 sequence (P47901 whole entry)
Description: Agonist activity at vasopressin receptor 1b (unknown origin) expressed in HEK293 cells assessed as stimulation of cAMP production incubated for 30 mins by HTRF assay relative to control. In kind it is functional, cell-based.

In a further data set the test system is HEK293. Description: Cytotoxic activity against HEK293 cells assessed as reduction in cell viability by measuring ATP level incubated for 72 hrs by ATP cytotoxicity assay. In kind it is cell-based, Homo sapiens.
Data set [6] can be described thus: Cytotoxic activity against HEK293 cells assessed as reduction in cell viability by measuring ATP level incubated for 72 hrs by ATP cytotoxicity assay relative to control. In kind it is cell-based. As to conditions: human, read-out: %max.
Data set [7] in a line: Solubility in PBS buffer. In kind it is physicochemical.
Data set [8] can be described thus: Half life in mouse liver microsomes. In kind it is ADME. For orientation: Microsomes from liver hold many membrane-bound enzymes, among them those of drug oxidation.
Data set [9] can be described thus: Stimulation of VEGF gene expression in human THP1 cells assessed as change in VEGF mRNA level incubated for 2 hrs by quantitative real time RT-PCR method relative to control. In kind it is functional, cell-based. The conditions noted are these: THP-1.
The target of data set [10] is T2, Relaxin receptor 1 (Homo sapiens). The data set can be described thus: Agonist activity at RXFP1 receptor (unknown origin) expressed in HEK293 cells assessed as increase cell impedance at 250 to 750 nM measured every 10 to 30 secs for 1 hr by real time cell analyzer method. In kind it is functional, cell-based.
Data set [11] deals with T1, Relaxin receptor 1. The data set can be described thus: Agonist activity at RXFP1 receptor in human THP1 cells assessed as stimulation of cAMP production incubated for 30 mins by HTRF assay. In kind it is functional, cell-based, THP-1.
Where [12] appears, read: Homo sapiens, HEK293, 72 h, read-out: EC50.

T3 sequence (Q8WXD0 whole entry): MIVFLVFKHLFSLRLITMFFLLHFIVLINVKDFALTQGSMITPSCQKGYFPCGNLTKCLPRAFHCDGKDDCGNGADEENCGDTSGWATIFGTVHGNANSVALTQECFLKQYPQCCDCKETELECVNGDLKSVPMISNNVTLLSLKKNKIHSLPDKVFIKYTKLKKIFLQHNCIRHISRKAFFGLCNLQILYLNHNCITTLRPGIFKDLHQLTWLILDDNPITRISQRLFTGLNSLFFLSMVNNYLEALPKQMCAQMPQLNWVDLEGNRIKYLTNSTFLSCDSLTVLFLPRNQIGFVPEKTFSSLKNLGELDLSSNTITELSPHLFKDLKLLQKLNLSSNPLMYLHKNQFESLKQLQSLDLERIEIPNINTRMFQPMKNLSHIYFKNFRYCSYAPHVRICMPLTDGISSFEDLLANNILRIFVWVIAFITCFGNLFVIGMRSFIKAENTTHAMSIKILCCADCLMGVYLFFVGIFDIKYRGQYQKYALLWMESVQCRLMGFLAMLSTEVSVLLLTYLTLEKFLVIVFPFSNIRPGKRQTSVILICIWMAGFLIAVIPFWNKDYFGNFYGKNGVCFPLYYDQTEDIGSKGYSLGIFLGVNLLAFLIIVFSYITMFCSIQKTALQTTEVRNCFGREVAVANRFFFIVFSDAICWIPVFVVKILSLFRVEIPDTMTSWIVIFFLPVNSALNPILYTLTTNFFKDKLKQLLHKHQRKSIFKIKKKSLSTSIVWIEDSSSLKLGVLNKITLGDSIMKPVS

As usually defined, the AC50 is the concentration at which the activity in the assay is half-maximal. In general, EC50 refers to the concentration giving half of the maximal effect. A word on the solubility: it is the concentration that dissolves in the medium under given conditions. Low readings indicate a poorly soluble substance, high ones a readily soluble substance. Turning to `O=C(Nc1cccc(C(F)(F)F)c1)c1ccccc1NC(=O)C1CCCCC1`, the values for the AC50 on Relaxin receptor 1 [1] (read-out: AC50), at Relaxin receptor 2 [3] (hek293) and at Vasopressin V1b receptor were 0.047 µM, “Not Active” and “Not Active”, respectively. Besides, the %max in [2] was 92%; at Relaxin receptor 2 [4], below 30%; in data set [5] it was below 30%. Further, the EC50 with HEK293 (setting [12]) is 59.3 µM. In addition, in [6], the Emax at 72 h is -53%. In [7], the solubility was found to be 5.3 µM (≈ 2.07 µg/mL).
On to `O=C(Nc1ccccc1C(=O)Nc1cccc(C(F)(F)F)c1)c1cccnc1`, for which the AC50 at Relaxin receptor 1 [1] (read-out: AC50) is 5.93 µM; at Relaxin receptor 2 [3] (hek293), “Not Active”; on Vasopressin V1b receptor, “Not Active”. Also, the values for the %max (in data set [2]; at Relaxin receptor 2 [4]; in [5]) were 95%, below 30% and below 30%, respectively. Further, the EC50 with HEK293 (setting [12]) amounted to 9.4 µM. In addition, the Emax at 72 h in [6] worked out at 85%. For the same molecule, the solubility in data set [7] turned out to be 7 µM (≈ 2.7 µg/mL).
In the case of `O=C(Nc1ccccc1C(=O)Nc1cccc(C(F)(F)F)c1)c1ccc2c(c1)OCO2`, the figures for the AC50 at Relaxin receptor 1 [1] (read-out: AC50), on Relaxin receptor 2 [3] (read-out: AC50) and at Vasopressin V1b receptor were 6.66 µM, 3.34 µM and “Not Active”, respectively. The %max is 81% in data set [2], 54% at Relaxin receptor 2 [4] and below 30% in [5]. For the same molecule, in the data set with HEK293 (setting [12]), the concentration for a half-maximal effect (EC50) came to 3.74 µM. Further, the Emax at 72 h in data set [6] is -31%. In addition, the solubility in [7] came out at 2.9 µM (≈ 1.24 µg/mL).
With `O=C(Nc1ccc2cc[nH]c2c1)c1ccccc1NC(=O)C1CCCCC1`, the AC50 result was “Not Active” on Relaxin receptor 1 [1] (hek293), 9.4 µM on Relaxin receptor 2 [3] (read-out: AC50) and “Not Active” at Vasopressin V1b receptor. For the same molecule, in [2], the “%max” value is “inactive”. The %max is 47% on Relaxin receptor 2 [4] and below 30% in data set [5]. Also, in the data set on HEK293 (hek293), the half-maximal effective concentration (EC50) entry is “Non-toxic”. Moreover, in data set [6], the Emax at 72 h is below 30%. In data set [7], this molecule came in with a solubility of 1.7 µM (≈ 0.614 µg/mL).
For the molecule `O=C(Nc1ccccc1C(=O)Nc1cccc(C(F)(F)F)c1)c1ccncc1`, the AC50 at Relaxin receptor 1 [1] (read-out: AC50) is 7.47 µM; at Relaxin receptor 2 [3] (hek293), “Not Active”; at Vasopressin V1b receptor, “Not Active”. Also, the %max was 51% in [2], below 30% on Relaxin receptor 2 [4] and below 30% in data set [5]. For the same molecule, in the data set on HEK293 (setting [12]), the EC50 is 9.4 µM. Also, in data set [6], the Emax at 72 h came to 83%. In data set [7], this molecule had a solubility of 17 µM (≈ 6.55 µg/mL).
The half-life is how long it takes for the measured level to halve. Lower therefore signals rapid decline. Take `O=C(Nc1ccccc1C(=O)Nc1cccc(C(F)(F)F)c1)c1cccs1`: the AC50 was 1.88 µM on Relaxin receptor 1 [1] (read-out: AC50), “Not Active” on Relaxin receptor 2 [3] (hek293) and “Not Active” on Vasopressin V1b receptor. In addition, the %max in [2] was 88%; at Relaxin receptor 2 [4], below 30%; in data set [5] it was below 30%. Moreover, the Emax at 72 h in data set [6] is -78%. The same molecule returned a solubility in [7] of 3.3 µM (≈ 1.29 µg/mL). The same molecule came in with a half-life in data set [8] of 1.67 h.
For `CCCCOc1ccccc1C(=O)Nc1ccccc1C(=O)Nc1cccc(S(=O)(=O)C(F)(F)F)c1`, at Relaxin receptor 1 [1] (read-out: AC50), the AC50 is 0.047 µM. The %max in data set [2] was found to be 98%. Further, the fold change (FC) in [9] came out at 1.6. For the same molecule, the result in data set [10] was Active. The EC50 on Relaxin receptor 1 [11] was found to be 0.124 µM.
